Reference: publication PMC10313001, “Carboxylic acids that drive mosquito attraction to humans activate ionotropic receptors” (PLOS Neglected Tropical Diseases, 2023)

What was measured:
[1] = molecular target: T1, AaegIR75k1 (Aedes aegypti, UniProt A0A6I8TFY9); assay: two-electrode voltage clamp, Xenopus oocytes expressing AaegIR75k1/AaegIR8a; type: cell-based
T1 construct: gene 5563741; with AaegIR8a
T1 sequence (A0A6I8TFY9 20-624): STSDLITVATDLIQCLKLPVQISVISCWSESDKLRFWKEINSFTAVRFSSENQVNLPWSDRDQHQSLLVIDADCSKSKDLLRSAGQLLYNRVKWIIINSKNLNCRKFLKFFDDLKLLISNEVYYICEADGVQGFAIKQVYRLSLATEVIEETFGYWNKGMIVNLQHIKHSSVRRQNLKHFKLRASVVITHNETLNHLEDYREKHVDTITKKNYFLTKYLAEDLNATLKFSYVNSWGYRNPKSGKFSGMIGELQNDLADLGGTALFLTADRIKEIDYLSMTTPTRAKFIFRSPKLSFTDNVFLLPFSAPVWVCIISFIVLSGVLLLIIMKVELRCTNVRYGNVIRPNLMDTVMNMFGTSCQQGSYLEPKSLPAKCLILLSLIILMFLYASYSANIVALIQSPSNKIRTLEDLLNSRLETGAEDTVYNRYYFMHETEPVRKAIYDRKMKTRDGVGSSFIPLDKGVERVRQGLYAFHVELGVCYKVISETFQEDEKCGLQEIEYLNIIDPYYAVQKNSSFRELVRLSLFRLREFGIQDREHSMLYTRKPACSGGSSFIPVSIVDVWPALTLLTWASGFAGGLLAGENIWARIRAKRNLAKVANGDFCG
T1 sequence (A0A1S4F362 23-913 partner): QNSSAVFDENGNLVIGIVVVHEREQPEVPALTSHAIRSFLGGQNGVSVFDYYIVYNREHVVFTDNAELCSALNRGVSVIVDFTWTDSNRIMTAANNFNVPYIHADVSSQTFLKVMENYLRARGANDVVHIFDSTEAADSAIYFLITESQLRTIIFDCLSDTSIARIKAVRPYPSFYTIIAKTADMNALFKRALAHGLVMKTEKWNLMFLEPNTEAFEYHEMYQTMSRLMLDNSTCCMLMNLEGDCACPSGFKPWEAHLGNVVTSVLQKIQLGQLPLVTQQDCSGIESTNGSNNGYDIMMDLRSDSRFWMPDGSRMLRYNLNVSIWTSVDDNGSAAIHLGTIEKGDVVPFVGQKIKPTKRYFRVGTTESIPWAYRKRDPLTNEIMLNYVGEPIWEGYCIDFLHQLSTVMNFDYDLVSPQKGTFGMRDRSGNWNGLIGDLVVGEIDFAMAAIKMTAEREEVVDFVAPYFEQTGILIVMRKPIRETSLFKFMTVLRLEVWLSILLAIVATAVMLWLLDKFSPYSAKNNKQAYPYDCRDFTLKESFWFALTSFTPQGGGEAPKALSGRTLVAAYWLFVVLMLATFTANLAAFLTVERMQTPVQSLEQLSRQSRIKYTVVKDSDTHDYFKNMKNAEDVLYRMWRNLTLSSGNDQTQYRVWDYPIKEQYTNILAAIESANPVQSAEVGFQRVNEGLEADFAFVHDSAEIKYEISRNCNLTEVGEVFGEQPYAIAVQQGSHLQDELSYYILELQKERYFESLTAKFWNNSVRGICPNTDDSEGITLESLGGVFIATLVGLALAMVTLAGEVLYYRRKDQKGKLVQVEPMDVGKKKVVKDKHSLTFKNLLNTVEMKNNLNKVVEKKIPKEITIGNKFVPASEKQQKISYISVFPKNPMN

[2] = molecular target: T2, AaegIR75k3 (Aedes aegypti, UniProt A0A6I8U3Y9); assay: two-electrode voltage clamp, Xenopus oocytes expressing AaegIR75k3/AaegIR8a; type: cell-based
T2 construct: gene 5563739; with AaegIR8a
T2 sequence (A0A6I8U3Y9 20-624): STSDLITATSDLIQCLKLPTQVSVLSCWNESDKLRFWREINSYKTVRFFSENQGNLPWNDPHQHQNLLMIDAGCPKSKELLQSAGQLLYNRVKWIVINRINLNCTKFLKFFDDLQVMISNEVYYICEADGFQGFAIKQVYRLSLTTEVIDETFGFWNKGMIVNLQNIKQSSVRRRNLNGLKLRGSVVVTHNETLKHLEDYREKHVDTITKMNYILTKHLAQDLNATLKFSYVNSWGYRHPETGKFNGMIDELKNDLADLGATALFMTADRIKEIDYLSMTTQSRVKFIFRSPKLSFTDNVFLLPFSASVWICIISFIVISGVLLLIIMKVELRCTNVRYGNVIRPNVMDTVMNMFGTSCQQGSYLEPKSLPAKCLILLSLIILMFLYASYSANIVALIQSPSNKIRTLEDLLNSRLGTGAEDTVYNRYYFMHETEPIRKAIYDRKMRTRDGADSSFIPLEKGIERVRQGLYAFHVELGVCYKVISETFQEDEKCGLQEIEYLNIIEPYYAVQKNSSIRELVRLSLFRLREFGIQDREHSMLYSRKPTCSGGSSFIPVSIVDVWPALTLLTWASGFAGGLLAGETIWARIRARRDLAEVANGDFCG
T2 sequence (A0A1S4F362 23-913 partner): T1 sequence (A0A1S4F362 23-913 partner)

[3] = system: T3, AalbIR75e; assay: two-electrode voltage clamp, Xenopus oocytes expressing AalbIR75e/AalbIR8a; type: cell-based, Aedes albopictus
T3 construct: gene Ir75e; with AalbIR8a

[4] = molecular target: T1, AaegIR75k1; assay: two-electrode voltage clamp, Xenopus oocytes, single concentration […]; response about one quarter of nonanoic acid; type: cell-based

Row | Compound | EC50 [1] | EC50 [2] | EC50 [3] | two-electrode voltage clamp, Xenopus oocytes, single concentration 10^-4 M; resp [4]
1 | CCCCCCCCC(=O)O [nonanoic acid] | 9.94 µM | 18.1 µM | 8.64 µM | –
2 | CCCCCCCC(=O)O [octanoic acid] | – | 25.2 µM | – | also maximally activated by nonanoic acid, with responses four-fold greater than for octanoic acid
